Test results reported in patent US20250144067A1, “PERSONALIZED STARVATION THERAPY FOR CANCER” (Faeth Therapeutics, Inc., priority 2021, published 2025).
Structures can show the parent of a compound that is named as a salt. Where two headings read alike, the source gives them in different places.

Legend:
[1] = system: NCI-H292 lung cancer cells; assay: FDA drug screening, complete media vs cholesterol-free media without statin (TABLE 1); format: cell-based, human
[2] = system: NCI-H292 lung cancer cells; assay: FDA drug screening, complete media vs cholesterol-free media with simvastatin (TABLE 2); format: cell-based, human
[3] = Complete minus Cholesterol-free, >0 enhanced anti-cancer activity, about 0 neutral, <0 antagonist
[4] = NCI-H292 cells, cholesterol-free media without statin
[5] = NCI-H292 cells, cholesterol-free media with simvastatin 0.04 μM, FDA drug library screen (TABLE 2)
[6] = NCI-H292 cells, complete media, FDA drug library screen (TABLE 2)
[7] = complete media minus cholesterol-free media + simvastatin (0.04 μM), >0 enhanced anti-cancer activity, about 0 neutral, <0 antagonist
[8] = NCI-H292 cells, cholesterol-free media without statin, FDA drug library screen
[9] = NCI-H292 cells, complete media, FDA drug library screen
[10] = complete vs cholesterol-free media, >0 enhanced anti-cancer activity, about 0 neutral, <0 antagonist
[11] = NCI-H292 cells, FDA drug library screen, cholesterol-free media with simvastatin 0.04 μM
[12] = NCI-H292 cells, FDA drug library screen, complete media
[13] = complete media vs cholesterol-free media + simvastatin (0.04 μM), >0 enhanced anti-cancer activity, about 0 neutral, <0 antagonist
[14] = complete vs cholesterol-free media, […]
[15] = complete media minus cholesterol-free media + simvastatin, […]
[16] = NCI-H292 cells, FDA library drug in cholesterol-free media with simvastatin 0.04 μM
[17] = NCI-H292 cells, FDA library drug in complete media
[18] = NCI-H292 cells, drug in cholesterol-free media with simvastatin 0.04 μM
[19] = NCI-H292 cells, drug in complete media
[20] = Complete minus Cholesterol-free, greater than 0 enhanced anti-cancer activity, about 0 neutral, below 0 antagonists
[21] = NCI-H292 cells in cholesterol-free media without statin
[22] = NCI-H292 cells in complete media
[23] = complete vs cholesterol-free media, greater than 0 enhanced anti-cancer activity, about 0 neutral, below 0 antagonists
[24] = NCI-H292 cells, cholesterol-free media with simvastatin 0.04 μM, cell growth value in FDA drug screen
[25] = NCI-H292 cells, complete media, cell growth value in FDA drug screen
[26] = complete media minus cholesterol-free media + simvastatin, >0 enhanced anti-cancer activity, about 0 neutral, <0 antagonist
[27] = Complete minus Cholesterol-free, […]
[28] = NCI-H292 cells, FDA drug library screen, cholesterol-free media without statin

CCOC(=O)[C@H](CCc1ccccc1)N[C@@H](C)C(=O)N1[C@H](C(=O)O)C[C@@H]2CCC[C@@H]21 [Ramipril]
Difference [1, 3]: −0.24 | Cholesterol-free [1, 4]: 1.132 | Complete ([1]; NCI-H292 cells, complete media): 0.8936 | Cholesterol-free media + simvastatin (0.04 μM) [2, 5]: 1.055 | Complete Media [2, 6]: 0.9941 | Difference [2, 7]: −0.06

CCCCCCCCOc1ccccc1C(=O)Nc1ccc(C(=O)OCC[N+](C)(CC)CC)cc1.[Br-] [Otilonium (bromide)]
Cholesterol-free [1]: 1.132 | Complete [1]: 0.8071 | Difference [1]: −0.32 | Cholesterol-free media + simvastatin (0.04 μM) [2]: 0.9764 | Complete Media [2]: 1.024 | Difference [2]: 0.05

Cc1c(C)c2c(c(C)c1O)CCC(C)(COc1ccc(CC3SC(=O)NC3=O)cc1)O2 (stereo not shown) [Troglitazone]
Cholesterol-free [1, 8]: 0.7956 | Complete [1, 9]: 1.359 | Difference [1, 10]: 0.56 | Cholesterol-free media + simvastatin (0.04 μM) [2, 11]: 0.9725 | Complete Media [2, 12]: 0.8929 | Difference [2, 13]: −0.08

Cc1cnc(C(=O)N[C@H]2CCCCC/C=C\[C@@H]3C[C@@]3(C(=O)NS(=O)(=O)C3CC3)NC(=O)[C@@H]3C[C@@H](Oc4nc5ccccc5c5ccccc45)CN3C2=O)cn1 [Paritaprevir]
Difference [1, 3]: −0.03 | Cholesterol-free [1, 8]: 0.9471 | Complete [1, 9]: 0.9198 | Cholesterol-free media + simvastatin (0.04 μM) [2, 5]: 1.147 | Complete Media [2, 6]: 1.102 | Difference [2, 7]: −0.05

O=C(O)COC(=O)Cc1ccccc1Nc1c(Cl)cccc1Cl [Aceclofenac]
Cholesterol-free [1, 8]: 0.9513 | Complete [1, 9]: 1.14 | Difference [1, 10]: 0.19 | Cholesterol-free media + simvastatin (0.04 μM) [2, 11]: 1.455 | Complete Media [2, 12]: 1.329 | Difference [2, 13]: −0.13

Cc1cc(N2CCN([C@@H]3CN[C@H](C(=O)N4CCSC4)C3)CC2)n(-c2ccccc2)n1 [Teneligliptin]
Cholesterol-free [1, 4]: 1.328 | Complete ([1]; NCI-H292 cells, complete media): 0.9852 | Difference [1, 14]: −0.34 | Cholesterol-free media + simvastatin (0.04 μM) [2, 11]: 0.6861 | Complete Media [2, 12]: 1.012 | Difference [2, 15]: 0.33

CNCCCC1c2ccccc2C=Cc2ccccc21 [Protriptyline (hydrochloride)]
Difference [1, 3]: −0.19 | Cholesterol-free [1, 4]: 1.347 | Cholesterol-free media + simvastatin (0.04 μM) [2, 16]: 1.142 | Complete Media [2, 17]: 0.7923 | Difference [2, 13]: −0.35

CCCN(CCC)S(=O)(=O)c1ccc(C(=O)O)cc1 [Probenecid]
Difference [1, 3]: −0.02 | Cholesterol-free [1, 8]: 0.9245 | Complete [1, 9]: 0.9089 | Cholesterol-free media + simvastatin (0.04 μM) [2, 18]: 1.512 | Complete Media [2, 19]: 1.266 | Difference [2, 13]: −0.25

Cc1ccc(-c2ncc(Cl)cc2-c2ccc(S(C)(=O)=O)cc2)cn1 [Etoricoxib]
Cholesterol-free [1, 8]: 1.045 | Complete [1, 9]: 1.321 | Difference [1, 10]: 0.28 | Cholesterol-free media + simvastatin (0.04 μM) [2, 5]: 1.501 | Complete Media [2, 6]: 1.49 | Difference [2, 7]: −0.01

Pheniramine (Maleate)
Difference [1, 20]: −0.65 | Cholesterol-free [1, 21]: 1.526 | Complete [1, 22]: 0.8791 | Cholesterol-free media + simvastatin (0.04 μM) [2, 5]: 1.33 | Complete Media [2, 6]: 1.284 | Difference [2, 7]: −0.05

C[C@]12CCC(=O)C=C1[C@@H]1C[C@@H]1[C@H]1[C@@H]3[C@@H]4C[C@@H]4[C@@]4(CCC(=O)O4)[C@@]3(C)CC[C@@H]12 [Drospirenone]
Cholesterol-free [1, 4]: 1.382 | Complete ([1]; NCI-H292 cells, complete media): 1.062 | Difference [1, 23]: −0.32 | Cholesterol-free media + simvastatin (0.04 μM) [2, 18]: 1.4 | Complete Media [2, 19]: 1.139 | Difference [2, 13]: −0.26

C[C@H](CCC(=O)NCCS(=O)(=O)O)[C@H]1CC[C@H]2[C@@H]3CC[C@@H]4C[C@H](O)CC[C@]4(C)[C@H]3C[C@H](O)[C@]12C [Taurodeoxycholic acid (sodium hydrate)]
Difference [1, 3]: −0.23 | Cholesterol-free [1, 4]: 1.216 | Complete ([1]; NCI-H292 cells, complete media): 0.9829 | Difference [2, 13]: −0.45

Cc1cccc(Nc2ccccc2C(=O)O)c1C [Mefenamic acid]
Difference [1, 20]: −0.58 | Cholesterol-free [1, 21]: 2.136 | Complete [1, 22]: 1.551 | Cholesterol-free media + simvastatin (0.04 μM) [2, 11]: 1.014 | Complete Media [2, 12]: 0.8951 | Difference [2, 13]: −0.12

COc1cc(NS(=O)(=O)c2ccc(N)cc2)nc(OC)n1 [Sulfadimethoxine (sodium)]
Difference [1, 3]: −0.30 | Cholesterol-free [1, 4]: 1.031 | Complete ([1]; NCI-H292 cells, complete media): 0.7288 | Cholesterol-free media + simvastatin (0.04 μM) [2, 16]: 1.876 | Complete Media [2, 17]: 1.521 | Difference [2, 13]: −0.35

CNC(=O)c1c(I)c(NC(C)=O)c(I)c(C(=O)O)c1I [Iotalamic acid]
Difference [1, 3]: −0.29 | Cholesterol-free [1, 4]: 1.385 | Complete ([1]; NCI-H292 cells, complete media): 1.091 | Cholesterol-free media + simvastatin (0.04 μM) [2, 16]: 1.459 | Complete Media [2, 17]: 0.9854 | Difference [2, 13]: −0.47

CC(=O)OCC1=C(C(=O)O)N2C(=O)[C@@H](NC(=O)CSc3ccncc3)[C@H]2SC1 [Cephapirin (sodium)]
Cholesterol-free [1]: 0.9897 | Complete [1]: 1.131 | Difference [1]: 0.14 | Cholesterol-free media + simvastatin (0.04 μM) [2]: 2.472 | Complete Media [2]: 1.209 | Difference [2]: −1.26

CC(=O)N[C@@H](CS)C(=O)O [Acetylcysteine]
Difference [1, 20]: −0.64 | Cholesterol-free [1, 21]: 1.369 | Complete [1, 22]: 0.7324 | Cholesterol-free media + simvastatin (0.04 μM) [2, 18]: 1.145 | Complete Media [2, 19]: 0.9059 | Difference [2, 13]: −0.24

COc1cc(Nc2c(C#N)cnc3cc(OCCCN4CCN(C)CC4)c(OC)cc23)c(Cl)cc1Cl [Bosutinib]
Difference [1, 3]: 0.05 | Cholesterol-free [1, 8]: 0.4091 | Complete [1, 9]: 0.4542 | Cholesterol-free media + simvastatin (0.04 μM) [2, 24]: 0.2873 | Complete Media [2, 25]: 0.3524 | Difference [2, 26]: 0.07

CC(C)[C@]12O[C@H]1[C@@H]1O[C@]13[C@]1(O[C@H]1C[C@H]1C4=C(CC[C@@]13C)C(=O)OC4)[C@@H]2O [Triptolide]
Difference [1, 27]: −0.01 | Cholesterol-free [1, 8]: 0.04113 | Complete [1, 9]: 0.03049 | Cholesterol-free media + simvastatin (0.04 μM) [2, 5]: 0.007136 | Complete Media [2, 6]: −0.02177 | Difference ([2]; complete media minus cholesterol-free media + simvastatin (0.04 μM), […]): −0.03

Loxapine (succinate)
Difference [1, 20]: −0.72 | Cholesterol-free [1, 21]: 1.602 | Complete [1, 22]: 0.8776 | Cholesterol-free media + simvastatin (0.04 μM) [2, 24]: 1.274 | Complete Media [2, 25]: 1.361 | Difference [2, 26]: 0.09

COCC(=O)Nc1c(I)c(C(=O)NCC(O)CO)c(I)c(C(=O)N(C)CC(O)CO)c1I (stereo not shown) [Iopromide]
Cholesterol-free [1, 8]: 0.9462 | Complete [1, 9]: 1.578 | Difference [1, 10]: 0.63 | Cholesterol-free media + simvastatin (0.04 μM) [2, 5]: 0.8199 | Complete Media [2, 6]: 0.7955 | Difference [2, 7]: −0.02

COc1ccnc(C[S+]([O-])c2nc3cc(-n4cccc4)ccc3[nH]2)c1C (stereo not shown) [Ilaprazole (sodium)]
Cholesterol-free [1, 4]: 1.162 | Complete ([1]; NCI-H292 cells, complete media): 0.7783 | Difference [1, 23]: −0.38 | Cholesterol-free media + simvastatin (0.04 μM) [2, 24]: 1.333 | Complete Media [2, 25]: 1.428 | Difference [2, 26]: 0.10

COC1=CC(=O)OC(/C=C/c2ccccc2)C1 (single isomer, unassigned; (+)) [(+)-Kavain]
Difference [1, 27]: −0.08 | Cholesterol-free [1, 28]: 1.138 | Complete [1, 12]: 1.054 | Cholesterol-free media + simvastatin (0.04 μM) ([2]; NCI-H292 cells, cholesterol-free media with simvastatin 0.04 μM, […]): 1.009 | Complete Media ([2]; NCI-H292 cells, complete media, […]): 1.093 | Difference [2, 15]: 0.08

CC(C)(CO)[C@H](O)C(=O)NCCCO [D-Panthenol]
Difference ([1]; Complete minus Cholesterol-free, greater than 0 enhanced anti-cancer activity, about 0 neutral, below 0 antagonist): −0.09 | Cholesterol-free [1, 28]: 1.002 | Complete [1, 12]: 0.9087 | Cholesterol-free media + simvastatin (0.04 μM) [2, 18]: 1.067 | Complete Media [2, 19]: 0.817 | Difference [2, 13]: −0.25

N[C@@H](Cc1cc(I)c(Oc2cc(I)c(O)c(I)c2)c(I)c1)C(=O)O [L-Thyroxine]
Difference [1, 3]: −0.28 | Cholesterol-free [1, 4]: 1.11 | Complete ([1]; NCI-H292 cells, complete media): 0.8302 | Cholesterol-free media + simvastatin (0.04 μM) [2, 11]: 1.059 | Complete Media [2, 12]: 1.284 | Difference [2, 26]: 0.23

CN(C)CCCOc1nn(Cc2ccccc2)c2ccccc12 [Benzydamine (hydrochloride)]
Cholesterol-free [1, 4]: 1.444 | Complete ([1]; NCI-H292 cells, complete media): 1.002 | Difference [1, 23]: −0.44 | Cholesterol-free media + simvastatin (0.04 μM) [2, 11]: 0.5074 | Complete Media [2, 12]: 1.108 | Difference [2, 26]: 0.60

CCn1cc(C(=O)O)c(=O)c2cc(F)c(N3CCNCC3)cc21 [Norfloxacin]
Cholesterol-free [1, 8]: 1.043 | Complete [1, 9]: 1.123 | Difference [1, 10]: 0.08 | Cholesterol-free media + simvastatin (0.04 μM) [2, 16]: 1.696 | Complete Media [2, 17]: 1.396 | Difference [2, 13]: −0.30

O=C(O)c1cc(/N=N/c2ccc(O)c(C(=O)O)c2)ccc1O [Olsalazine (Disodium)]
Difference [1, 3]: −0.25 | Cholesterol-free [1, 4]: 1.211 | Complete ([1]; NCI-H292 cells, complete media): 0.9604 | Cholesterol-free media + simvastatin (0.04 μM) [2, 5]: 1.218 | Difference [2, 7]: −0.07

Oxaliplatin
Cholesterol-free [1, 4]: 1.359 | Complete ([1]; NCI-H292 cells, complete media): 0.9211 | Difference [1, 14]: −0.44 | Cholesterol-free media + simvastatin (0.04 μM) [2, 11]: 0.8725 | Difference [2, 15]: 0.17
